Experimental data: patent US20100227917A1, “EYE DROP CONTAINING DIBENZ[b,e]OXEPIN DERIVATIVE” (priority 2007, published 2010)

Assays:
Type in all cases: physicochemical
[1] = External observation of olopatadine hydrochloride mixtures (Test Examples 1 and 2); conditions: for External appearance after 1 hour stirring: about 23° C.; for External appearance after 43 hours: left at about 23° C.
Method: (§1) Each of the resulting mixtures was stirred with a magnetic stirrer at room temperature (about 23° C.) for 1 hour, and external observation and pH measurement were carried out. Then, an aqueous solution of sodium hydroxide was added to each mixture to prepare mixtures of pH 4 and 7, and external observation and pH measurement were carried out. Then, the mixtures were left at room temperature (about 23° C.) for 43 hours, and external observation, pH measurement, solubility measurement, and osmotic pressure measurement were carried out.
(§2) Each of the resulting mixtures was stirred with a magnetic stirrer at room temperature (about 23° C.) for 1 hour, and external observation and pH measurement were carried out. Then, an aqueous solution of sodium hydroxide was added to each mixture to prepare a mixture of pH 4, and external observation and pH measurement were carried out. Then, the mixture was left at room temperature (about 23° C.) for 43 hours, and external observation, pH measurement, solubility measurement, and osmotic pressure measurement were carried out in the same manner as in Test Example 1.

pH measurement = experiment: pH measurement
Method: as §1, §2

[2] = Osmotic pressure measurement with osmometer; conditions: ratio to physiological saline (293 mOsm), after 43 hours
Method: An osmotic pressure was measured using an osmometer (Osmostat OM6040, Arkray, Inc.).
Further, a ratio to the osmotic pressure of physiological saline was calculated according to the following equation.
(osmotic pressure ratio)=(osmotic pressure of test liquid)/(osmotic pressure of physiological saline)(293mOsm)

[3] = 100 mg in 10 mL Aqueous solution of 0.9% NaCl
[4] = 100 mg in 10 mL Buffer at pH 4.0 containing 0.9% NaCl
[5] = 100 mg in 10 mL Buffer at pH 7.0 containing 0.9% NaCl
[6] = 100 mg in 10 mL glutamic acid-sodium glutamate buffer at pH 4.0, column prepared to pH 4.0
[7] = 100 mg in 10 mL glutamic acid-sodium glutamate buffer at pH 4.0, column prepared to pH 7.0
[8] = 100 mg in 10 mL glutamic acid-sodium glutamate buffer at pH 7.0, column prepared to pH 4.0
[9] = 100 mg in 10 mL glutamic acid-sodium glutamate buffer at pH 7.0, column prepared to pH 7.0
[10] = Aqueous solution of 0.9% NaCl, prepared to pH 4
[11] = Buffer at pH 4.0 containing 0.9% NaCl, prepared to pH 4
[12] = Buffer at pH 7.0 containing 0.9% NaCl, prepared to pH 4
[13] = glutamic acid-sodium glutamate buffer at pH 4.0, prepared to pH 4.0
[14] = glutamic acid-sodium glutamate buffer at pH 4.0, prepared to pH 7.0
[15] = glutamic acid-sodium glutamate buffer at pH 7.0, prepared to pH 4.0
[16] = glutamic acid-sodium glutamate buffer at pH 7.0, prepared to pH 7.0

CN(C)CC/C=C1/c2ccccc2COc2ccc(CC(=O)O)cc21.Cl [olopatadine hydrochloride, (Z)-11-(3-dimethylaminopropylidene)-6,11-dihydrodibenz[b,e]oxepin-2-acetic acid hydrochloride]
External appearance after 1 hour stirring [1, 3]: Turbid in white
External appearance after 1 hour stirring [1, 4]: Turbid in white
External appearance after 1 hour stirring [1, 5]: Almost clear
External appearance after 1 hour stirring [1, 6]: Clear
External appearance after 1 hour stirring [1, 7]: Clear
External appearance after 1 hour stirring [1, 8]: Clear
External appearance after 1 hour stirring [1, 9]: Clear
External appearance after pH adjustment [1, 10]: Turbid in white
External appearance after 43 hours [1, 10]: Turbid in white
External appearance after pH adjustment [1, 11]: Turbid in white
External appearance after 43 hours [1, 11]: Turbid in white
External appearance after pH adjustment [1, 12]: Almost clear
External appearance after 43 hours [1, 12]: Turbid in white
External appearance after pH adjustment [1, 13]: Clear
External appearance after 43 hours [1, 13]: Turbid in white
External appearance after pH adjustment [1, 14]: Turbid in white
External appearance after 43 hours [1, 14]: Turbid in white
External appearance after pH adjustment [1, 15]: Clear
External appearance after pH adjustment [1, 16]: Turbid in white
External appearance after 43 hours [1, 16]: Turbid in white
pH after 1 hour stirring (pH measurement; [3]): 3.0
pH after 1 hour stirring (pH measurement; [4]): 3.6
pH after 1 hour stirring (pH measurement; [5]): 4.1
pH after 1 hour stirring (pH measurement; [6]): 3.3
pH after 1 hour stirring (pH measurement; [7]): 3.3
pH after 1 hour stirring (pH measurement; [8]): 4.0
pH after 1 hour stirring (pH measurement; [9]): 4.0
pH adjustment (actual measurement value) (pH measurement; [10]): 3.8
pH after 43 hours (pH measurement; [10]): 3.7
pH adjustment (actual measurement value) (pH measurement; [11]): 3.8
pH after 43 hours (pH measurement; [11]): 3.8
pH adjustment (actual measurement value) (pH measurement; [12]): 4.1
pH after 43 hours (pH measurement; [12]): 3.9
pH adjustment (actual measurement value) (pH measurement; [13]): 4.1
pH after 43 hours (pH measurement; [13]): 3.9
pH adjustment (actual measurement value) (pH measurement; [14]): 6.9
pH after 43 hours (pH measurement; [14]): 6.9
pH adjustment (actual measurement value) (pH measurement; [15]): 4.0
pH after 43 hours (pH measurement; [15]): 3.7
pH adjustment (actual measurement value) (pH measurement; [16]): 6.9
pH after 43 hours (pH measurement; [16]): 6.9
Osmotic pressure ratio [2, 10]: 1.085
Osmotic pressure ratio [2, 11]: 1.167
Osmotic pressure ratio [2, 12]: 1.201
Osmotic pressure ratio [2, 13]: 0.290
Osmotic pressure ratio [2, 14]: 0.403
Osmotic pressure ratio [2, 15]: 0.270
Osmotic pressure ratio [2, 16]: 0.379
